ChEMBL document CHEMBL3352542, “Synthesis, biological evaluation and molecular modeling study of 2-(1,3,4-thiadiazolyl-thio and 4-methyl-thiazolyl-thio)-quinazolin-4-ones as a new class of DHFR inhibitors” (Bioorg Med Chem Lett, 2014)
Active and inactive are the calls of the source.

What was measured:
MDA-MB-231 = assay: Growth inhibition of human MDA-MB-231 cells at 10 uM after 48 hrs; assay type: functional
SF-539 = assay: Growth inhibition of human SF539 cells at 10 uM after 48 hrs; assay type: functional
OVCAR-8 = assay: Growth inhibition of human OVCAR8 cells at 10 uM after 48 hrs; assay type: functional
HCT-116 = assay: Growth inhibition of human HCT116 cells at 10 uM after 48 hrs; assay type: functional
UACC-62 = assay: Growth inhibition of human UACC62 cells at 10 uM after 48 hrs; assay type: functional
SNB-75 = assay: Growth inhibition of human SNB75 cells at 10 uM after 48 hrs; assay type: functional
NCI-H522 = assay: Growth inhibition of human NCI-H522 cells at 10 uM after 48 hrs; assay type: functional
Bacillus subtilis [1] = assay: Antimicrobial activity against Bacillus subtilis assessed as inhibition of visible growth after 24 hrs by disc-diffusion method; assay type: functional, organism-based
Malme-3M = assay: Growth inhibition of human MALME-3M cells at 10 uM after 48 hrs; assay type: functional
HOP-92 = assay: Growth inhibition of human HOP92 cells at 10 uM after 48 hrs; assay type: functional
U-251 = assay: Growth inhibition of human U251 cells at 10 uM after 48 hrs; assay type: functional
CAKI-1 = assay: Growth inhibition of human CAKI-1 cells at 10 uM after 48 hrs; assay type: functional
Escherichia coli = assay: Antimicrobial activity against Escherichia coli assessed as inhibition zone at 200 ug/disk after 24 hrs by disc-diffusion method; assay type: functional; conditions: read-out: IZ
NCI-H23 = assay: Growth inhibition of human NCI-H23 cells at 10 uM after 48 hrs; assay type: functional
LOX IMVI = assay: Growth inhibition of human LOXIMVI cells at 10 uM after 48 hrs; assay type: functional
NCI-H460 = assay: Growth inhibition of human NCI-H460 cells at 10 uM after 48 hrs; assay type: functional
SR = assay: Growth inhibition of human SR cells at 10 uM after 48 hrs; assay type: functional
CCRF-CEM = assay: Growth inhibition of human CCRF-CEM cells at 10 uM after 48 hrs; assay type: functional
Pseudomonas aeruginosa = assay: Antimicrobial activity against Pseudomonas aeruginosa assessed as inhibition zone at 200 ug/disk after 24 hrs by disc-diffusion method; assay type: functional; conditions: read-out: IZ
RPMI-8226 = assay: Growth inhibition of human RPMI8226 cells at 10 uM after 48 hrs; assay type: functional
Dihydrofolate reductase = target: T1, Dihydrofolate reductase (Bos taurus, UniProt P00376); assay: Inhibition of bovine liver DHFR
T1 sequence (P00376 whole entry): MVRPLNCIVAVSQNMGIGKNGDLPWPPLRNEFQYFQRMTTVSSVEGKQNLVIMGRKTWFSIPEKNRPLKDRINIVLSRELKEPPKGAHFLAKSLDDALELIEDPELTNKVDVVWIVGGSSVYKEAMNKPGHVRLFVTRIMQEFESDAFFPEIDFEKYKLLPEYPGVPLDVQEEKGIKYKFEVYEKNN

A498 = assay: Growth inhibition of human A498 cells at 10 uM after 48 hrs; assay type: functional
Hs-578T = assay: Growth inhibition of human Hs 578T cells at 10 uM after 48 hrs; assay type: functional
SNB-19 = assay: Growth inhibition of human SNB19 cells at 10 uM after 48 hrs; assay type: functional
SF-268 = assay: Growth inhibition of human SF268 cells at 10 uM after 48 hrs; assay type: functional
786-0 = assay: Growth inhibition of human 786-0 cells at 10 uM after 48 hrs; assay type: functional
SN12C = assay: Growth inhibition of human SN12C cells at 10 uM after 48 hrs; assay type: functional
BT-549 = assay: Growth inhibition of human BT549 cells at 10 uM after 48 hrs; assay type: functional
SF-295 = assay: Growth inhibition of human SF295 cells at 10 uM after 48 hrs; assay type: functional
MDA-MB-468 = assay: Growth inhibition of human MDA-MB-468 cells at 10 uM after 48 hrs; assay type: functional
KM12 = assay: Growth inhibition of human KM12 cells at 10 uM after 48 hrs; assay type: functional
COLO 205 = assay: Growth inhibition of human COLO205 cells at 10 uM after 48 hrs; assay type: functional
Staphylococcus aureus [2] = assay: Antimicrobial activity against Staphylococcus aureus assessed as inhibition zone at 200 ug/disk after 24 hrs by disc-diffusion method; assay type: functional; conditions: read-out: IZ
HT-29 = assay: Growth inhibition of human HT-29 cells at 10 uM after 48 hrs; assay type: functional
MCF7 = assay: Growth inhibition of human MCF7 cells at 10 uM after 48 hrs; assay type: functional
SK-MEL-5 = assay: Growth inhibition of human SK-MEL-5 cells at 10 uM after 48 hrs; assay type: functional
NCI-H226 = assay: Growth inhibition of human NCI-H226 cells at 10 uM after 48 hrs; assay type: functional
SW-620 = assay: Growth inhibition of human SW620 cells at 10 uM after 48 hrs; assay type: functional
UACC-257 = assay: Growth inhibition of human UACC257 cells at 10 uM after 48 hrs; assay type: functional
PC-3 = assay: Growth inhibition of human PC3 cells at 10 uM after 48 hrs; assay type: functional
MOLT-4 = assay: Growth inhibition of human MOLT4 cells at 10 uM after 48 hrs; assay type: functional
NCI/ADR-RES = assay: Growth inhibition of human NCI-ADR-RES cells at 10 uM after 48 hrs; assay type: functional
OVCAR-3 = assay: Growth inhibition of human OVCAR3 cells at 10 uM after 48 hrs; assay type: functional
UO-31 = assay: Growth inhibition of human UO31 cells at 10 uM after 48 hrs; assay type: functional
K562 = assay: Growth inhibition of human K562 cells at 10 uM after 48 hrs; assay type: functional
Bacillus subtilis [3] = assay: Antimicrobial activity against Bacillus subtilis assessed as inhibition zone at 200 ug/disk after 24 hrs by disc-diffusion method; assay type: functional; conditions: read-out: IZ
HCC 2998 = assay: Growth inhibition of human HCC2998 cells at 10 uM after 48 hrs; assay type: functional
HL-60(TB) = assay: Growth inhibition of human HL-60(TB) cells at 10 uM after 48 hrs; assay type: functional
Candida albicans = assay: Antimicrobial activity against Candida albicans assessed as inhibition zone at 200 ug/disk after 24 hrs by disc-diffusion method; assay type: functional; conditions: read-out: IZ
ACHN = assay: Growth inhibition of human ACHN cells at 10 uM after 48 hrs; assay type: functional
HCT-15 = assay: Growth inhibition of human HCT15 cells at 10 uM after 48 hrs; assay type: functional
T47D = assay: Growth inhibition of human T47D cells at 10 uM after 48 hrs; assay type: functional
OVCAR-4 = assay: Growth inhibition of human OVCAR4 cells at 10 uM after 48 hrs; assay type: functional
M14 = assay: Growth inhibition of human M14 cells at 10 uM after 48 hrs; assay type: functional
OVCAR-5 = assay: Growth inhibition of human OVCAR5 cells at 10 uM after 48 hrs; assay type: functional
TK-10 = assay: Growth inhibition of human TK10 cells at 10 uM after 48 hrs; assay type: functional
MDA-MB-435 = assay: Growth inhibition of human MDA-MB-435 cells at 10 uM after 48 hrs; assay type: functional
Staphylococcus aureus [4] = assay: Antimicrobial activity against Staphylococcus aureus assessed as inhibition of visible growth after 24 hrs by disc-diffusion method; assay type: functional, organism-based
RXF 393 = assay: Growth inhibition of human RXF393 cells at 10 uM after 48 hrs; assay type: functional
A549 = assay: Growth inhibition of human A549 cells at 10 uM after 48 hrs; assay type: functional

Cc1ccc(-n2c(Sc3sc(N)nc3C)nc3ccc(Cl)cc3c2=O)cc1
inactive: growth inhibition (GI) (MDA-MB-231) | growth inhibition (GI) (SF-539) | growth inhibition (GI) (OVCAR-8) | growth inhibition (GI) (HCT-116) | growth inhibition (GI) (UACC-62) | growth inhibition (GI) (SNB-75) | growth inhibition (GI) (NCI-H522) | growth inhibition (GI) (Malme-3M) | growth inhibition (GI) (HOP-92) | growth inhibition (GI) (U-251) | growth inhibition (GI) (CAKI-1) | growth inhibition (GI) (NCI-H23) | growth inhibition (GI) (LOX IMVI) | growth inhibition (GI) (NCI-H460) | growth inhibition (GI) (SR) | growth inhibition (GI) (CCRF-CEM) | growth inhibition (GI) (RPMI-8226) | growth inhibition (GI) (A498) | growth inhibition (GI) (Hs-578T) | growth inhibition (GI) (SNB-19) | growth inhibition (GI) (SF-268) | growth inhibition (GI) (786-0) | growth inhibition (GI) (SN12C) | growth inhibition (GI) (BT-549) | growth inhibition (GI) (SF-295) | growth inhibition (GI) (MDA-MB-468) | growth inhibition (GI) (KM12) | growth inhibition (GI) (COLO 205) | growth inhibition (GI) (HT-29) | growth inhibition (GI) (MCF7) | growth inhibition (GI) (SK-MEL-5) | growth inhibition (GI) (NCI-H226) | growth inhibition (GI) (SW-620) | growth inhibition (GI) (UACC-257) | growth inhibition (GI) (PC-3) | growth inhibition (GI) (MOLT-4) | growth inhibition (GI) (NCI/ADR-RES) | growth inhibition (GI) (OVCAR-3) | growth inhibition (GI) (UO-31) | growth inhibition (GI) (K562) | growth inhibition (GI) (HCC 2998) | growth inhibition (GI) (HL-60(TB)) | growth inhibition (GI) (ACHN) | growth inhibition (GI) (HCT-15) | growth inhibition (GI) (T47D) | growth inhibition (GI) (OVCAR-4) | growth inhibition (GI) (M14) | growth inhibition (GI) (OVCAR-5) | growth inhibition (GI) (TK-10) | growth inhibition (GI) (MDA-MB-435) | growth inhibition (GI) (RXF 393) | growth inhibition (GI) (A549)
active: Activity (Bacillus subtilis [1]) | Activity (Staphylococcus aureus [4])
18 mm: zone of inhibition at 200 µg/disc (Staphylococcus aureus [2])
8 mm: zone of inhibition at 200 µg/disc (Escherichia coli) | zone of inhibition at 200 µg/disc (Pseudomonas aeruginosa) | zone of inhibition at 200 µg/disc (Candida albicans)
5 µM: IC50 (Dihydrofolate reductase)
16 mm: zone of inhibition at 200 µg/disc (Bacillus subtilis [3])

COc1cc2nc(Sc3sc(N)nc3C)n(Cc3ccccc3)c(=O)c2cc1OC
20 mm: zone of inhibition at 200 µg/disc (Staphylococcus aureus [2])
inactive: growth inhibition (GI) (MDA-MB-231) | growth inhibition (GI) (SF-539) | growth inhibition (GI) (OVCAR-8) | growth inhibition (GI) (HCT-116) | growth inhibition (GI) (UACC-62) | growth inhibition (GI) (SNB-75) | growth inhibition (GI) (NCI-H522) | growth inhibition (GI) (Malme-3M) | growth inhibition (GI) (HOP-92) | growth inhibition (GI) (U-251) | growth inhibition (GI) (CAKI-1) | growth inhibition (GI) (NCI-H23) | growth inhibition (GI) (LOX IMVI) | growth inhibition (GI) (NCI-H460) | growth inhibition (GI) (SR) | growth inhibition (GI) (CCRF-CEM) | growth inhibition (GI) (RPMI-8226) | growth inhibition (GI) (A498) | growth inhibition (GI) (Hs-578T) | growth inhibition (GI) (SNB-19) | growth inhibition (GI) (SF-268) | growth inhibition (GI) (786-0) | growth inhibition (GI) (SN12C) | growth inhibition (GI) (BT-549) | growth inhibition (GI) (SF-295) | growth inhibition (GI) (MDA-MB-468) | growth inhibition (GI) (KM12) | growth inhibition (GI) (COLO 205) | growth inhibition (GI) (HT-29) | growth inhibition (GI) (MCF7) | growth inhibition (GI) (SK-MEL-5) | growth inhibition (GI) (NCI-H226) | growth inhibition (GI) (SW-620) | growth inhibition (GI) (UACC-257) | growth inhibition (GI) (PC-3) | growth inhibition (GI) (MOLT-4) | growth inhibition (GI) (NCI/ADR-RES) | growth inhibition (GI) (OVCAR-3) | growth inhibition (GI) (UO-31) | growth inhibition (GI) (K562) | growth inhibition (GI) (HCC 2998) | growth inhibition (GI) (HL-60(TB)) | growth inhibition (GI) (ACHN) | growth inhibition (GI) (HCT-15) | growth inhibition (GI) (T47D) | growth inhibition (GI) (OVCAR-4) | growth inhibition (GI) (M14) | growth inhibition (GI) (OVCAR-5) | growth inhibition (GI) (TK-10) | growth inhibition (GI) (MDA-MB-435) | growth inhibition (GI) (RXF 393) | growth inhibition (GI) (A549)
active: Activity (Bacillus subtilis [1]) | Activity (Staphylococcus aureus [4])
24 mm: zone of inhibition at 200 µg/disc (Bacillus subtilis [3])
6 µM: IC50 (Dihydrofolate reductase)
8 mm: zone of inhibition at 200 µg/disc (Escherichia coli) | zone of inhibition at 200 µg/disc (Pseudomonas aeruginosa) | zone of inhibition at 200 µg/disc (Candida albicans)
